Data published in the supplement of paper PMC11208160.

assay: recombinant UMI read abundance after kanamycin selection (control-corrected) (log10(CPM+1)); higher = more efficient recombination; extreme values may be limits of the assay; sequences stand for … in AGTGCAGAGAAAATCGGCCAGTTTTCTCTGCCTGCAGTCCGCATGCCGTGGGACCCCTTGGGTTCTAACCTGTTGCCTAGATTTATGCAGCGGACTGCCTTTCTCCCAAAGTGATAAACCGG…AGGTTGGTTTCACT; site = the 11-nt donor
How it was run: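 Under IPTG (0.07 mM) plus kanamycin, or without selection, Escherichia coli carrying a UMI-tagged donor and donor-binding-loop pair library and a target plasmid for the IS621 bridge recombinase were plated in two replicates. Recombinant UMIs were PCR-amplified across the donor–target junction and sequenced. Counts were converted to CPM, averaged over replicates, scaled by control-derived factors and reported as log10(CPM+1).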
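Also: IS621 bridge recombinase in Escherichia coli cells against a fixed T5 target plasmid.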

Row | Sequence | recombinant UMI read abundance (log10)
1 | ATCTATACATGGACCGGTTTTCCCGGTAATCCGTATTTGAT (site ATCTATACTTT) | 0.00795
2 | ATCTATCCATGGACCGGTTTTCCCGGTAATCCGTATTTGCT (site ATCTATCCTAG) | 1.24
3 | ATCTCTGCATGGACCGGTTTTCCCGGTAATCCGTATTTGCT (site ATCTCTGCTAG) | 1.73
4 | ATCTGCCCATGGACCGGTTTTCCCGGTAATCCGTATTTGCT (site ATCTGCCCTAG) | 0.548
5 | ATCTGCTCATGGACCGGTTTTCCCGGTAATCCGTATTTGGA (site ATCTGCTCTTC) | 1.49
6 | ATCTGGGCATGGACCGGTTTTCCCGGTAATCCGTATTTGGT (site ATCTGGGCTAC) | 0.162
7 | ATCTTGGCATGGACCGGTTTTCCCGGTAATCCGTATTTGGG (site ATCTTGGCTCC) | 0.448
8 | ATGAAGACATGGACCGGTTTTCCCGGTAATCCGTATTTGCA (site AAGAAGACTTG) | 1.29
9 | ATGAAGACATGGACCGGTTTTCCCGGTAATCCGTATTTGCA (site ACGAAGACTTG) | 2.34
10 | ATGAAGACATGGACCGGTTTTCCCGGTAATCCGTATTTGCA (site AGGAAGACTTG) | 1.02
11 | ATGAAGACATGGACCGGTTTTCCCGGTAATCCGTATTTGCA (site ATGAAGACTTG) | 2.64
12 | ATGAAGACATGGACCGGTTTTCCCGGTAATCCGTATTTGGA (site AGGAAGACTTG) | 0
13 | ATGAAGACATGGACCGGTTTTCCCGGTAATCCGTATTTGGA (site ATGAAGACTTC) | 1.52
14 | ATGACAACATGGACCGGTTTTCCCGGTAATCCGTATTTGGA (site ATGACAACTTC) | 1.22
15 | ATGACGCCATGGACCGGTTTTCCCGGTAATCCGTATTTGGA (site ATGACGCCTTC) | 0.0104
16 | ATGAGCACATGGACCGGTTTTCCCGGTAATCCGTATTTGGC (site ATGAGCACTGC) | 2.98
17 | ATGATAACATGGACCGGTTTTCCCGGTAATCCGTATTTGCC (site ATGATAACTGG) | 3.06
18 | ATGCAGACATGGACCGGTTTTCCCGGTAATCCGTATTTGTC (site ATGCAGACTGA) | 2.43
19 | ATGCCGCCATGGACCGGTTTTCCCGGTAATCCGTATTTGGG (site ATGCCGCCTCC) | 0.0227
20 | ATGCGTTCATGGACCGGTTTTCCCGGTAATCCGTATTTGAC (site ATGCGTTCTGT) | 2.37
21 | ATGCGTTCATGGACCGGTTTTCCCGGTAATCCGTATTTGCG (site ATGCGTTCTCG) | 1.96
22 | ATGCTACCATGGACCGGTTTTCCCGGTAATCCGTATTTGCT (site ATGCTACCTAG) | 0
23 | ATGCTACCATGGACCGGTTTTCCCGGTAATCCGTATTTGCT (site CTGCTACCTAG) | 0

Row | Sequence | recombinant UMI read abundance (log10)
24 | ATGCTACCATGGACCGGTTTTCCCGGTAATCCGTATTTGCT (site GTGCTACCTAG) | 0
25 | ATGCTACCATGGACCGGTTTTCCCGGTAATCCGTATTTGCT (site TTGCTACCTAG) | 0
26 | ATGGCAACATGGACCGGTTTTCCCGGTAATCCGTATTTGTG (site ATGGCAACTCA) | 0.02
27 | ATGGGCCCATGGACCGGTTTTCCCGGTAATCCGTATTTGTC (site ATGGGCCCTGA) | 0.504
28 | ATGGTCGCATGGACCGGTTTTCCCGGTAATCCGTATTTGTT (site ATGGTCGCTAA) | 1.29
29 | ATGGTGTCATGGACCGGTTTTCCCGGTAATCCGTATTTGCT (site ATGGTGTCTAG) | 3.4
30 | ATGTAGGCATGGACCGGTTTTCCCGGTAATCCGTATTTGGA (site ATGTAGGCTAC) | 0.451
31 | ATGTAGGCATGGACCGGTTTTCCCGGTAATCCGTATTTGGA (site ATGTAGGCTCC) | 0.209
32 | ATGTAGGCATGGACCGGTTTTCCCGGTAATCCGTATTTGGA (site ATGTAGGCTGC) | 1.58
33 | ATGTAGGCATGGACCGGTTTTCCCGGTAATCCGTATTTGGA (site ATGTAGGCTTC) | 1
34 | ATGTATACATGGACCGGTTTTCCCGGTAATCCGTATTTGAC (site ATATATACTGT) | 2.59
35 | ATGTATACATGGACCGGTTTTCCCGGTAATCCGTATTTGAC (site ATCTATACTGT) | 0.457
36 | ATGTATACATGGACCGGTTTTCCCGGTAATCCGTATTTGAC (site ATGTATACTGT) | 3.18
37 | ATGTATACATGGACCGGTTTTCCCGGTAATCCGTATTTGAC (site ATTTATACTGT) | 0.661
38 | ATGTCCGCATGGACCGGTTTTCCCGGTAATCCGTATTTGCC (site ATGTCCGCTGG) | 2.45
39 | ATGTGGGCATGGACCGGTTTTCCCGGTAATCCGTATTTGTA (site ATGTGGGCTTA) | 2.32
40 | ATGTTGGCATGGACCGGTTTTCCCGGTAATCCGTATTTGGC (site ATGTAGGCTGC) | 1.71
41 | ATGTTGGCATGGACCGGTTTTCCCGGTAATCCGTATTTGGC (site ATGTCGGCTGC) | 0.939
42 | ATGTTGGCATGGACCGGTTTTCCCGGTAATCCGTATTTGGC (site ATGTGGGCTGC) | 0.332
43 | ATGTTGGCATGGACCGGTTTTCCCGGTAATCCGTATTTGGC (site ATGTTGGCTGC) | 2.68
44 | ATTAAGACATGGACCGGTTTTCCCGGTAATCCGTATTTGAA (site ATTAAGACTTT) | 1.43
45 | ATTACGACATGGACCGGTTTTCCCGGTAATCCGTATTTGGG (site ATTACGACTCC) | 0.00852
46 | ATTATTACATGGACCGGTTTTCCCGGTAATCCGTATTTGCA (site ATTATTACTTG) | 1.8

Row | Sequence | recombinant UMI read abundance (log10)
47 | ATTCATGCATGGACCGGTTTTCCCGGTAATCCGTATTTGGT (site ATTCATGCTAC) | 0.729
48 | ATTCCATCATGGACCGGTTTTCCCGGTAATCCGTATTTGGA (site ATTCCATCTTC) | 0.345
49 | ATTCGTCCATGGACCGGTTTTCCCGGTAATCCGTATTTGGT (site ATTCGTCCTAC) | 0.0259
50 | ATTGACACATGGACCGGTTTTCCCGGTAATCCGTATTTGGT (site ATTGAAACTAC) | 0.168
51 | ATTGACACATGGACCGGTTTTCCCGGTAATCCGTATTTGGT (site ATTGACACTAC) | 0.911
52 | ATTGACACATGGACCGGTTTTCCCGGTAATCCGTATTTGGT (site ATTGAGACTAC) | 0.811
53 | ATTGACACATGGACCGGTTTTCCCGGTAATCCGTATTTGGT (site ATTGATACTAC) | 0.459
54 | ATTGAGACATGGACCGGTTTTCCCGGTAATCCGTATTTGCT (site ATTGAGACTAA) | 0.627
55 | ATTGAGACATGGACCGGTTTTCCCGGTAATCCGTATTTGCT (site ATTGAGACTAC) | 0.379
56 | ATTGAGACATGGACCGGTTTTCCCGGTAATCCGTATTTGCT (site ATTGAGACTAG) | 2.42
57 | ATTGAGACATGGACCGGTTTTCCCGGTAATCCGTATTTGCT (site ATTGAGACTAT) | 0.827
58 | ATTGAGACATGGACCGGTTTTCCCGGTAATCCGTATTTGGC (site ATTGAGACTAC) | 0.0133
59 | ATTGAGACATGGACCGGTTTTCCCGGTAATCCGTATTTGGC (site ATTGAGACTCC) | 0.38
60 | ATTGAGACATGGACCGGTTTTCCCGGTAATCCGTATTTGGC (site ATTGAGACTGC) | 1.83
61 | ATTGAGACATGGACCGGTTTTCCCGGTAATCCGTATTTGGC (site ATTGAGACTTC) | 0.679
62 | ATTGAGACATGGACCGGTTTTCCCGGTAATCCGTATTTGTT (site ATTGAGACTAA) | 1.71
63 | ATTGAGACATGGACCGGTTTTCCCGGTAATCCGTATTTGTT (site ATTGAGACTAC) | 0.013
64 | ATTGAGACATGGACCGGTTTTCCCGGTAATCCGTATTTGTT (site ATTGAGACTAG) | 2.02
65 | ATTGAGACATGGACCGGTTTTCCCGGTAATCCGTATTTGTT (site ATTGAGACTAT) | 0.811
66 | ATTGAGCCATGGACCGGTTTTCCCGGTAATCCGTATTTGGT (site ATTGAGACTAC) | 0.00491
67 | ATTGAGCCATGGACCGGTTTTCCCGGTAATCCGTATTTGGT (site ATTGAGCCTAC) | 0.00384
68 | ATTGAGCCATGGACCGGTTTTCCCGGTAATCCGTATTTGGT (site ATTGAGGCTAC) | 0.0212
